From the NIST ThermoML archive (doi:10.1016/j.jct.2011.04.008)

Assay: xn = mol fraction of the nth substance listed
Details: 101 kPa, Liquid; for viscosity: Capillary tube (Ostwald / Ubbelohde) method; for speed of sound: Linear variable-path acoustic interferometer; for mass density: Pycnometric method

Cc1ccccc1 [toluene] + CC(=O)OC(C)(C)C
x2 = 0
Details | mass density [kg/m3] | speed of sound [m/s] | viscosity [mPa·s]
298.15 K | 862.2 | 1312 | 0.556
308.15 K | 852.5 | 1270 | 0.494

c1ccccc1 [benzene] + CC(=O)OC(C)(C)C
x2 = 0
Details | mass density [kg/m3] | speed of sound [m/s] | viscosity [mPa·s]
298.15 K | 873 | 1296 | 0.609
308.15 K | 862 | 1260 | 0.539

CC(=O)OC(C)(C)C [1,1-dimethylethyl ethanoate] + Cc1ccccc1
Details | mass density, 298.15 K [kg/m3] | mass density, 308.15 K [kg/m3] | speed of sound, 298.15 K [m/s] | speed of sound, 308.15 K [m/s] | viscosity, 298.15 K [mPa·s] | viscosity, 308.15 K [mPa·s]
x1 = 0.0976 | 861.9 | 851.9 | 1275 | 1232 | 0.567 | 0.502
x1 = 0.1986 | 861.6 | 851.2 | 1242 | 1197 | 0.577 | 0.509
x1 = 0.2993 | 861.2 | 850.5 | 1213 | 1168 | 0.588 | 0.516
x1 = 0.3975 | 860.8 | 849.9 | 1187 | 1143 | 0.599 | 0.524
x1 = 0.4983 | 860.5 | 849.4 | 1165 | 1120 | 0.611 | 0.533
x1 = 0.5978 | 860.3 | 848.9 | 1145 | 1101 | 0.623 | 0.542
x1 = 0.6975 | 860.2 | 848.7 | 1128 | 1085 | 0.636 | 0.553
x1 = 0.7972 | 860.3 | 848.7 | 1113 | 1072 | 0.65 | 0.565
x1 = 0.8987 | 860.6 | 848.9 | 1101 | 1062 | 0.666 | 0.58
x1 = 1 | 861.1 | 849.4 | 1092 | 1055 | 0.683 | 0.596

CCc1ccccc1 [ethylbenzene] + CC(=O)OC(C)(C)C
x2 = 0
Details | mass density [kg/m3] | speed of sound [m/s] | viscosity [mPa·s]
298.15 K | 864.4 | 1325 | 0.631
308.15 K | 855.4 | 1280 | 0.569

CC(=O)OC(C)(C)C [1,1-dimethylethyl ethanoate] + CCc1ccccc1
Details | mass density, 298.15 K [kg/m3] | mass density, 308.15 K [kg/m3] | speed of sound, 298.15 K [m/s] | speed of sound, 308.15 K [m/s] | viscosity, 298.15 K [mPa·s] | viscosity, 308.15 K [mPa·s]
x1 = 0.0979 | 863.9 | 854.7 | 1287 | 1245 | 0.635 | 0.571
x1 = 0.1974 | 863.3 | 853.9 | 1254 | 1214 | 0.639 | 0.573
x1 = 0.2989 | 862.6 | 852.9 | 1224 | 1186 | 0.641 | 0.573
x1 = 0.3983 | 861.9 | 852 | 1198 | 1161 | 0.644 | 0.574
x1 = 0.4976 | 861.3 | 851.1 | 1176 | 1139 | 0.647 | 0.575
x1 = 0.5986 | 860.7 | 850.3 | 1155 | 1119 | 0.651 | 0.576
x1 = 0.6977 | 860.4 | 849.7 | 1137 | 1101 | 0.656 | 0.579
x1 = 0.7979 | – | 849.3 | 1121 | 1085 | 0.663 | 0.582
x1 = 0.8978 | 860.5 | 849.2 | 1106 | 1069 | 0.671 | 0.588
x1 = 1 | 861.1 | 849.4 | 1092 | 1055 | 0.683 | 0.596

CC(=O)OC(C)(C)C [1,1-dimethylethyl ethanoate] + c1ccccc1
Details | mass density, 298.15 K [kg/m3] | mass density, 308.15 K [kg/m3] | speed of sound, 298.15 K [m/s] | speed of sound, 308.15 K [m/s] | viscosity, 298.15 K [mPa·s] | viscosity, 308.15 K [mPa·s]
x1 = 0.0987 | 870.6 | 859.3 | 1254 | 1215 | 0.613 | 0.54
x1 = 0.1999 | 868.5 | 856.8 | 1220 | 1179 | 0.618 | 0.542
x1 = 0.299 | 866.7 | 854.9 | 1192 | 1150 | 0.623 | 0.544
x1 = 0.3982 | 865.3 | 853.2 | 1169 | 1127 | 0.629 | 0.548
x1 = 0.498 | 864.1 | 851.9 | 1149 | 1107 | 0.636 | 0.552
x1 = 0.5995 | 863 | 850.8 | 1133 | 1091 | 0.643 | 0.558
x1 = 0.6996 | 862.3 | 850 | 1120 | 1079 | 0.651 | 0.565
x1 = 0.7999 | 861.7 | 849.5 | 1109 | 1068 | 0.661 | 0.574
x1 = 0.8993 | 861.3 | 849.4 | 1099 | 1060 | 0.671 | 0.584
x1 = 1 | 861.1 | 849.4 | 1092 | 1055 | 0.683 | 0.596
